From PMC5560747, “Computational-experimental approach to drug-target interaction mapping: A case study on kinase inhibitors” (PLoS Computational Biology, 2017)

How the values were obtained:
FYN A [1] = biological target: T1, FYN A (Homo sapiens, UniProt P06241); design: method as in Gao et al. [42]; conditions: ref Gao et al. [42], cited from earlier work
MARK2 = system: MARK2; design: method as in Gao et al. [42]; conditions: ref Gao et al. [42], cited from earlier work
CDK2 = system: CDK2; design: method as in Gao et al. [42]; conditions: ref Gao et al. [42], cited from earlier work
TYRO3 = system: TYRO3; design: method as in Gao et al. [42]; conditions: ref Gao et al. [42], cited from earlier work
TSSK2 = system: TSSK2; design: method as in Gao et al. [42]; conditions: ref Gao et al. [42], cited from earlier work
ROCK1 = system: ROCK1; design: method as in Gao et al. [42]; conditions: ref Gao et al. [42], cited from earlier work
RET = system: RET; design: method as in Gao et al. [42]; conditions: ref Gao et al. [42], cited from earlier work
BLK = system: BLK; design: method as in Gao et al. [42]; conditions: ref Gao et al. [42], cited from earlier work
PDK1 = system: PDK1; design: method as in Gao et al. [42]; conditions: ref Gao et al. [42], cited from earlier work
ITK = ITK (Homo sapiens, UniProt Q08881); design: method as in Gao et al. [42]; conditions: ref Gao et al. [42]; cited from earlier work
STK24 = system: STK24; design: method as in Gao et al. [42]; conditions: ref Gao et al. [42], cited from earlier work
SGK1 = system: SGK1; design: method as in Gao et al. [42]; conditions: ref Gao et al. [42], cited from earlier work
MAP4K2 = system: MAP4K2; design: method as in Gao et al. [42]; conditions: ref Gao et al. [42], cited from earlier work
CHK2 = system: CHK2; design: method as in Gao et al. [42]; conditions: ref Gao et al. [42], cited from earlier work
JNK1 = system: JNK1; design: method as in Gao et al. [42]; conditions: ref Gao et al. [42], cited from earlier work
CSNK1D = system: CSNK1D; design: method as in Gao et al. [42]; conditions: ref Gao et al. [42], cited from earlier work
PAK4 = system: PAK4; design: method as in Gao et al. [42]; conditions: ref Gao et al. [42], cited from earlier work
PKCa = system: PKCa; design: method as in Gao et al. [42]; conditions: ref Gao et al. [42], cited from earlier work
InsR = InsR (Homo sapiens, UniProt P06213); design: method as in Gao et al. [42]; conditions: ref Gao et al. [42], cited from earlier work
RPS6KA5 = system: RPS6KA5; design: method as in Gao et al. [42]; conditions: ref Gao et al. [42], cited from earlier work
TRKA = TRKA (Homo sapiens, UniProt P04629); design: method as in Gao et al. [42]; conditions: ref Gao et al. [42], cited from earlier work
KIT = system: KIT; design: method as in Gao et al. [42]; conditions: ref Gao et al. [42], cited from earlier work
MAPKAPK2 = system: MAPKAPK2; design: method as in Gao et al. [42]; conditions: ref Gao et al. [42], cited from earlier work
PRKX = system: PRKX; design: method as in Gao et al. [42]; conditions: ref Gao et al. [42], cited from earlier work
CAMK1 = system: CAMK1; design: method as in Gao et al. [42]; conditions: ref Gao et al. [42], cited from earlier work
EPHA2 = system: EPHA2; design: method as in Gao et al. [42]; conditions: ref Gao et al. [42], cited from earlier work
FES = system: FES; design: method as in Gao et al. [42]; conditions: ref Gao et al. [42], cited from earlier work
CLK2 = system: CLK2; design: method as in Gao et al. [42]; conditions: ref Gao et al. [42], cited from earlier work
FMS = system: FMS; design: method as in Gao et al. [42]; conditions: ref Gao et al. [42], cited from earlier work
GSK3b = system: GSK3b; design: method as in Gao et al. [42]; conditions: ref Gao et al. [42], cited from earlier work
FLT4 = FLT4 (Homo sapiens, UniProt P35916); design: method as in Gao et al. [42]; conditions: ref Gao et al. [42], cited from earlier work
FYN A [2] = biological target: T1, FYN A; assay: ADP-Glo Kinase Assay, tivozanib off-target testing; assay type: biochemical; conditions: read-out: Experimental validation pIC50 (converted)
Description: The kinase inhibitors were dissolved to 1X Kinase Buffer with 5% DMSO by transferring 200nL of the buffer using ECHO525 Liquid handler (Labcyte). […] The dissolved kinases and 2.5X kinase buffer controls were transferred at 400nL using ECHO525. […] The 2.5X ATP/substrate working stocks were transferred at 400nL using ECHO525.
For the ADP detection, 1 μl ADP-Glo reagent was dispensed (Thermo Scientific Multidrop Combi nL). […] Next, 2 μl kinase detection reagent was dispensed with Thermo Scientific Multidrop Combi nL.
Kinase assay, kinase dilution and substrate buffers were as indicated by the manufacturer (Promega). The assays were performed in the same way as with the kinases from the Kinase Selectivity Profiling System + ADP-Glo Assay kits (see previous section). All the assays were done in three individual experiments, each having three replicates.
IC50 values from all the experiments were obtained with GraphPad Prism 7 (GraphPad Software, Inc. California, USA) using inhibitor vs. response—variable slope (four parameters) analysis. […] X-axis scale was set to log10.

MAPKAPK3 = system: MAPKAPK3; design: method as in Gao et al. [42]; conditions: ref Gao et al. [42], cited from earlier work
ERK2 = system: ERK2; design: method as in Gao et al. [42]; conditions: ref Gao et al. [42], cited from earlier work

T1 sequence (P06241 whole entry): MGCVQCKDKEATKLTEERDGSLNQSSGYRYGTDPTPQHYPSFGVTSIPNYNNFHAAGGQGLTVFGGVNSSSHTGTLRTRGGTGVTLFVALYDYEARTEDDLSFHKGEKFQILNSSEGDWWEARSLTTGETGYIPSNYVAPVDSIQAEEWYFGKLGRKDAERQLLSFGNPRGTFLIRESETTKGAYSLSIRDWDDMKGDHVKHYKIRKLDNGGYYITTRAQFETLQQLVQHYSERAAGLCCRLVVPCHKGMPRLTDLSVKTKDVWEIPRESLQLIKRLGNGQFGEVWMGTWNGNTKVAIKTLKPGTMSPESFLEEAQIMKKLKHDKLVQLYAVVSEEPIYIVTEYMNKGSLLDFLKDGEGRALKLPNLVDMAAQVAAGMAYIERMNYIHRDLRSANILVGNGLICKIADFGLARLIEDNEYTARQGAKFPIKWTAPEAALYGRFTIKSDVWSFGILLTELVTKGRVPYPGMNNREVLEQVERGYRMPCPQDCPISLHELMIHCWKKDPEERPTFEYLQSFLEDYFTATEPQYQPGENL
Sequence of FLT4 (P35916 25-1363): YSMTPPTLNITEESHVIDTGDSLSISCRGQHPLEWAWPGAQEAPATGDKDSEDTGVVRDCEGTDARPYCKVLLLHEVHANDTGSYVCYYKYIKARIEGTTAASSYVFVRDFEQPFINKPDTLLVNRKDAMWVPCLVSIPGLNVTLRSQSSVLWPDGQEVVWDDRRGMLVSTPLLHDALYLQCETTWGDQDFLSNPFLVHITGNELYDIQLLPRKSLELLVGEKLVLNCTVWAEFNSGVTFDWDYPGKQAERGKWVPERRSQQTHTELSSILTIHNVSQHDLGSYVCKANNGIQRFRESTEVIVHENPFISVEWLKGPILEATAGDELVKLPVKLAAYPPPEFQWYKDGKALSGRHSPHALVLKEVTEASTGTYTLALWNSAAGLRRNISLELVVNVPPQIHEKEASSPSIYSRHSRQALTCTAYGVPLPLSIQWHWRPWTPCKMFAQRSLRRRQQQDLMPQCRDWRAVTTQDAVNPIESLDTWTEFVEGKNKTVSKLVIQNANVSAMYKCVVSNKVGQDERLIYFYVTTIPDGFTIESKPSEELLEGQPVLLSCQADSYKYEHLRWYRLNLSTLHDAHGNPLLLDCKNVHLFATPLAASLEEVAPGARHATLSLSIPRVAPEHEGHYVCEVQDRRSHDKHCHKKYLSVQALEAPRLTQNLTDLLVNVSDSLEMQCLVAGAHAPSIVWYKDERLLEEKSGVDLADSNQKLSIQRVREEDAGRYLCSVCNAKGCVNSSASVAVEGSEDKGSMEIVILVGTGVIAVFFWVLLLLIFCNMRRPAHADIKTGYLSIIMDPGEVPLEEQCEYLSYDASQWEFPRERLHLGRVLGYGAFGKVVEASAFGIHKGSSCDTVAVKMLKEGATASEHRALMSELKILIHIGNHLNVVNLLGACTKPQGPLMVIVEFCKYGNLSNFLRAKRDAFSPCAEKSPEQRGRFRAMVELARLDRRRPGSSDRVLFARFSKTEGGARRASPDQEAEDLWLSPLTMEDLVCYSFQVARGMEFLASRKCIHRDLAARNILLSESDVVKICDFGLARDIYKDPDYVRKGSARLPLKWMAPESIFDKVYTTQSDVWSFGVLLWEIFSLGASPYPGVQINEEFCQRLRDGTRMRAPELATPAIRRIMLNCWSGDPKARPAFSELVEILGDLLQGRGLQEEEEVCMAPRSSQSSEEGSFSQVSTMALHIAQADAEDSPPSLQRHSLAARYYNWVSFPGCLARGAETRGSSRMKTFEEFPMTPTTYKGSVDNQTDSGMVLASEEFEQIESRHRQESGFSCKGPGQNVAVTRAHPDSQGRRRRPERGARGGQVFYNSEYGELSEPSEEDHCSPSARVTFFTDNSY
Sequence of TRKA (P04629 33-796): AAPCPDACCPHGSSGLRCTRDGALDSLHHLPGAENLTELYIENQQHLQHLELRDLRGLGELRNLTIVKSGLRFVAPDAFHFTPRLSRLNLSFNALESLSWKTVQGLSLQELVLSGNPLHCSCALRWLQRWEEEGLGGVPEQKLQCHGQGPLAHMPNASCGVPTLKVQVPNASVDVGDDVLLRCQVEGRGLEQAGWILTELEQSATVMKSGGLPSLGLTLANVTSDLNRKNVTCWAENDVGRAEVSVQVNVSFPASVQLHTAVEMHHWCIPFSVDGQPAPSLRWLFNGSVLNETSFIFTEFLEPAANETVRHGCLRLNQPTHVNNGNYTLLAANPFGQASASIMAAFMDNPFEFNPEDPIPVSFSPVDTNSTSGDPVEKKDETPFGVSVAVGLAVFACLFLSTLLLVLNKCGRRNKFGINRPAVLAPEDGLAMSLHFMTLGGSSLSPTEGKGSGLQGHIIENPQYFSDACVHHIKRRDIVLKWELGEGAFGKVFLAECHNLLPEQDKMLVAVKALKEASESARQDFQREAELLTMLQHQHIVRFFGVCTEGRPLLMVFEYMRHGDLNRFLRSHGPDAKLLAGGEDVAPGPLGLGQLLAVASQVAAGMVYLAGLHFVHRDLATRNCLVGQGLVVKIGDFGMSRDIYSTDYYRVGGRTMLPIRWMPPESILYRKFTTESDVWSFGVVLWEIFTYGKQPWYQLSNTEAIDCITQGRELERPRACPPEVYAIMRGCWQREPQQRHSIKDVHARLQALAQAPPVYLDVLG
Sequence of InsR (P06213 28-1382): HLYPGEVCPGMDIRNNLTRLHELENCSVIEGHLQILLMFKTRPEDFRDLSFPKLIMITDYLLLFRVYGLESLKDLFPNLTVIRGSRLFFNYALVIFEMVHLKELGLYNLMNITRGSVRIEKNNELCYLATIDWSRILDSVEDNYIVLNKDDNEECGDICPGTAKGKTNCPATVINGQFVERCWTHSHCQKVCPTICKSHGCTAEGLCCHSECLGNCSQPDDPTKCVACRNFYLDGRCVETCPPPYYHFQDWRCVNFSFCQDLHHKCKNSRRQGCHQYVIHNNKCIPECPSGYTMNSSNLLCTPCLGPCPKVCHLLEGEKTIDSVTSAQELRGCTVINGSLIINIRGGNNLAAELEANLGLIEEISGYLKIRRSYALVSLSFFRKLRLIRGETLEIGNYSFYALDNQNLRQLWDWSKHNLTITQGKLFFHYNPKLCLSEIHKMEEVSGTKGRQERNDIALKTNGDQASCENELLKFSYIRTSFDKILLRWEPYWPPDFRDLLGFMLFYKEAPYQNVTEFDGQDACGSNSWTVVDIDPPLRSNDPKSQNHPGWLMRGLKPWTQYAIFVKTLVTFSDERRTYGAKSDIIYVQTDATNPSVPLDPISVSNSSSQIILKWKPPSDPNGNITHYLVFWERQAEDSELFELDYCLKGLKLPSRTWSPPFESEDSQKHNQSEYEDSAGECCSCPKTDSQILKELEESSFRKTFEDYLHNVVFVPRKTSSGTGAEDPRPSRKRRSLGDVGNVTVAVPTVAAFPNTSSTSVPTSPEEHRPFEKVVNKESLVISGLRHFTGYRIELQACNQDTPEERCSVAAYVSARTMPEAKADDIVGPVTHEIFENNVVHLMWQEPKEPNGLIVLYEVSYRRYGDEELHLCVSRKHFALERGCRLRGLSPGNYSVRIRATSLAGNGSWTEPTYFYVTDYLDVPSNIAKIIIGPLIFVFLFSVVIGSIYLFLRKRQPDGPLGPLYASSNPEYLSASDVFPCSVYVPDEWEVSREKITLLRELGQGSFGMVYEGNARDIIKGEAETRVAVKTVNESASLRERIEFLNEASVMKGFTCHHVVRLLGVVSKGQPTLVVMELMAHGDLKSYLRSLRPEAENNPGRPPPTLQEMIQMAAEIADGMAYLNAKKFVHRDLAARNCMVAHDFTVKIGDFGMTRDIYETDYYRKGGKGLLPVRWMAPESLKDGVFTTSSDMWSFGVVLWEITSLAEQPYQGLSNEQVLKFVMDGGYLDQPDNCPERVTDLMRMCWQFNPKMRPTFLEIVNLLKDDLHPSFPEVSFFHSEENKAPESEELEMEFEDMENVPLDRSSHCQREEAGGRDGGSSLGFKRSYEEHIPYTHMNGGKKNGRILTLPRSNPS
Sequence of ITK (Q08881 whole entry): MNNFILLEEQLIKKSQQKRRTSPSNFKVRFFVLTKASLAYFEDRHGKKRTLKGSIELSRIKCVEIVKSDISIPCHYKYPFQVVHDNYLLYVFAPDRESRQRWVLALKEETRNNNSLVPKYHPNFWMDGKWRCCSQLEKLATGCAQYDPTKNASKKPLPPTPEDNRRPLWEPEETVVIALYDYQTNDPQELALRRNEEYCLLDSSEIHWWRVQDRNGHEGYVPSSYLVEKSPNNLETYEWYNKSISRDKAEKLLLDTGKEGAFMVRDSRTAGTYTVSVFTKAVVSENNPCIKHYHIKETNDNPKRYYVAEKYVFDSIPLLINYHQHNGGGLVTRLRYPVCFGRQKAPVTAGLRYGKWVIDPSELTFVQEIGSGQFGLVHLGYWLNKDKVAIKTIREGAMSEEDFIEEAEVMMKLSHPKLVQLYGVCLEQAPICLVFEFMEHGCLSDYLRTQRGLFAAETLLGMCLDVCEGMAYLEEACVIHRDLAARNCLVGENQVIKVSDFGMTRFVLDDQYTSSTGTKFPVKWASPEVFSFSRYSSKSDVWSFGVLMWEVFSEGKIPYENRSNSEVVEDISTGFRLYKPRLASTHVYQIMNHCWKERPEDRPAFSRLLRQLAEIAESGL

## COc1cc2nccc(Oc3ccc(NC(=O)Nc4cc(C)on4)c(Cl)c3)c2cc1OC [TIVOZANIB, Tivozanib]
FYN A [1]; 1 µM
  Gao et al. % of activity remaining at 1 µM: 5%
FYN A [1]; 10 µM
  Gao et al. % of activity remaining at 10 µM: 1%
MARK2; 1 µM
  Gao et al. % of activity remaining at 1 µM: 98%
MARK2; 10 µM
  Gao et al. % of activity remaining at 10 µM: 106%
CDK2; 1 µM
  Gao et al. % of activity remaining at 1 µM: 98%
CDK2; 10 µM
  Gao et al. % of activity remaining at 10 µM: 86%
TYRO3; 1 µM
  Gao et al. % of activity remaining at 1 µM: 10%
TYRO3; 10 µM
  Gao et al. % of activity remaining at 10 µM: 8%
TSSK2; 1 µM
  Gao et al. % of activity remaining at 1 µM: 90%
TSSK2; 10 µM
  Gao et al. % of activity remaining at 10 µM: 78%
ROCK1; 1 µM
  Gao et al. % of activity remaining at 1 µM: 113%
ROCK1; 10 µM
  Gao et al. % of activity remaining at 10 µM: 112%
RET; 1 µM
  Gao et al. % of activity remaining at 1 µM: 0%
RET; 10 µM
  Gao et al. % of activity remaining at 10 µM: -1%
BLK; 1 µM
  Gao et al. % of activity remaining at 1 µM: 2%
BLK; 10 µM
  Gao et al. % of activity remaining at 10 µM: 0%
PDK1; 1 µM
  Gao et al. % of activity remaining at 1 µM: 110%
PDK1; 10 µM
  Gao et al. % of activity remaining at 10 µM: 116%
ITK
  Gao et al. % of activity remaining at 10 µM: 51%
STK24; 1 µM
  Gao et al. % of activity remaining at 1 µM: 118%
STK24; 10 µM
  Gao et al. % of activity remaining at 10 µM: 78%
SGK1; 1 µM
  Gao et al. % of activity remaining at 1 µM: 83%
SGK1; 10 µM
  Gao et al. % of activity remaining at 10 µM: 64%
MAP4K2; 1 µM
  Gao et al. % of activity remaining at 1 µM: 47%
MAP4K2; 10 µM
  Gao et al. % of activity remaining at 10 µM: 17%
CHK2; 1 µM
  Gao et al. % of activity remaining at 1 µM: 79%
CHK2; 10 µM
  Gao et al. % of activity remaining at 10 µM: 30%
JNK1; 1 µM
  Gao et al. % of activity remaining at 1 µM: 120%
JNK1; 10 µM
  Gao et al. % of activity remaining at 10 µM: 109%
CSNK1D; 1 µM
  Gao et al. % of activity remaining at 1 µM: 85%
CSNK1D; 10 µM
  Gao et al. % of activity remaining at 10 µM: 61%
PAK4; 1 µM
  Gao et al. % of activity remaining at 1 µM: 99%
PAK4; 10 µM
  Gao et al. % of activity remaining at 10 µM: 92%
PKCa; 1 µM
  Gao et al. % of activity remaining at 1 µM: 108%
PKCa; 10 µM
  Gao et al. % of activity remaining at 10 µM: 101%
InsR; 1 µM
  Gao et al. % of activity remaining at 1 µM: 102%
InsR; 10 µM
  Gao et al. % of activity remaining at 10 µM: 29%
RPS6KA5; 1 µM
  Gao et al. % of activity remaining at 1 µM: 107%
RPS6KA5; 10 µM
  Gao et al. % of activity remaining at 10 µM: 80%
TRKA; 1 µM
  Gao et al. % of activity remaining at 1 µM: 2%
TRKA; 10 µM
  Gao et al. % of activity remaining at 10 µM: 0%
KIT; 1 µM
  Gao et al. % of activity remaining at 1 µM: 3%
KIT; 10 µM
  Gao et al. % of activity remaining at 10 µM: 0%
MAPKAPK2; 1 µM
  Gao et al. % of activity remaining at 1 µM: 85%
MAPKAPK2; 10 µM
  Gao et al. % of activity remaining at 10 µM: 100%
PRKX; 1 µM
  Gao et al. % of activity remaining at 1 µM: 97%
PRKX; 10 µM
  Gao et al. % of activity remaining at 10 µM: 59%
CAMK1; 1 µM
  Gao et al. % of activity remaining at 1 µM: 105%
CAMK1; 10 µM
  Gao et al. % of activity remaining at 10 µM: 41%
EPHA2; 1 µM
  Gao et al. % of activity remaining at 1 µM: -3%
EPHA2; 10 µM
  Gao et al. % of activity remaining at 10 µM: -3%
FES; 1 µM
  Gao et al. % of activity remaining at 1 µM: 78%
FES; 10 µM
  Gao et al. % of activity remaining at 10 µM: 46%
CLK2; 1 µM
  Gao et al. % of activity remaining at 1 µM: 114%
CLK2; 10 µM
  Gao et al. % of activity remaining at 10 µM: 99%
FMS; 1 µM
  Gao et al. % of activity remaining at 1 µM: 0%
FMS; 10 µM
  Gao et al. % of activity remaining at 10 µM: 0%
GSK3b; 1 µM
  Gao et al. % of activity remaining at 1 µM: 104%
GSK3b; 10 µM
  Gao et al. % of activity remaining at 10 µM: 94%
FLT4; 1 µM
  Gao et al. % of activity remaining at 1 µM: -1%
FLT4; 10 µM
  Gao et al. % of activity remaining at 10 µM: -1%
FYN A [2]
  IC50: 398 nM
MAPKAPK3; 1 µM
  Gao et al. % of activity remaining at 1 µM: 116%
MAPKAPK3; 10 µM
  Gao et al. % of activity remaining at 10 µM: 67%
ERK2; 1 µM
  Gao et al. % of activity remaining at 1 µM: 103%
ERK2; 10 µM
  Gao et al. % of activity remaining at 10 µM: 104%
